Entries after “also recorded” stand apart in the source; their conditions may differ.
Experiments:
[1] = tested on: Arom^hum mice; test: Reversal of established scrotal hernias and LAMT fibrosis/atrophy in Arom^hum mice; format: in vivo, mouse
Experimental: FIG. 16. […] Arom^hum mice with small to moderate size of hernias were treated with placebo or letrozole for 12 weeks. (A) Schematic diagram depicts the schedule of drug administration. (B) The area of scrotal hernia in Arom^hum mice. (C) Representative photomicrographs of Masson's trichrome-stained LAMT sections of WT and Arom^hum mice. Quantification of the percentage of connective tissue or fibrotic area (D) or myofiber area (E) in WT and Arom^hummice. 10 representative high-power fields were analyzed in each tissue. One-way ANOVA with Tukey's multiple comparison test, **p<0.01, ***p<0.001. Scale bars, […]. n=5 mice per group.
FIG. 17. […] Arom^hum mice with small to moderate size of hernias were treated with placebo or letrozole for 3 weeks. (A) Schematic diagram depicts the schedule of drug administration. (B) The area of scrotal hernia in Arom^hum mice.
FIG. 18. E2/ER antagonist fulvestrant reverses the large size of scrotal hernias and rescues LAMT fibrosis and myocyte atrophy in Arom^hum mice. Arom^hum mice with large size of hernias were treated with placebo or fulvestrant for 12 weeks. (A) Schematic diagram depicts the schedule of drug administration. (B) The area of scrotal hernia in Arom^hum mice. (C) Representative photomicrographs of Masson's trichrome-stained LAMT sections of WT and Arom^hum mice. Quantification of the percentage of connective tissue or fibrotic area (D) in WT and Arom^hum mice. 10 representative high-power fields were analyzed in each tissue. (E) Hydroxyproline content in LAMT of WT and Arom^hum mice treated with fulvestrant. One-way ANOVA with Tukey's multiple comparison test, ***p<0.001, ****p<0.0001. n=5 mice per group.
(§1) FIG. 19. Aromatase inhibitor letrozole reverses the large size of scrotal hernias in Arom^hum mice. Arom^hum mice with large size of hernias were treated with placebo or letrozole for 12 weeks. (A) Schematic diagram depicts the schedule of drug administration. (B) The area of scrotal hernia in Arom^hum mice.
as §1, with “20. E2/ER antagonist raloxifene” for “19. Aromatase inhibitor letrozole”, “raloxifene” for “letrozole”, “3” for “12”
We treated Arom^hum mice with letrozole for 12 weeks. […] Raloxifene is a selective estrogen receptor modulator (SERM) and is currently used to prevent and treat osteoporosis in postmenopausal women.
We treated Arom^hum mice with fulvestrant for 12 weeks when the hernia area was over 200 mm^2. Large hernias were completely disappeared after 3- to 4-week of fulvestrant administration. […] We measured the total amount of collagen (largely type I and III), a major component of ECM, through measuring the content of hydroxyproline(1).

[2] = tested on: LAMT primary fibroblasts from Arom^hum mice; test: mRNA levels of estrogen-responsive and fibrotic genes in LAMT primary fibroblasts after E2 antagonist treatment; format: cell-based, mouse; conditions: 100 nM ICI 182,780, pretreated 2 hours before addition of E2 (10 nM)
Experimental: FIG. 10. mRNA levels of estrogen-responsive genes [Pgr (A, E) and Greb1 (B, F)] and fibrotic genes [Spon2 (C, G), Kiss1 (D), and Eln (H)] in LAMT primary fibroblasts from Arom^hum mice after treatment with 100 nM ICI 182,780 (ICI) or […] MPP in the presence or absence of E2 (10 nM). Cells were pretreated with ICI 182,780 or MPP for 2 hours before the addition of E2. Veh, vehicle. *P<0.05, **P<0.01. GAPDH mRNA levels served as controls.
Experiment 1a2: Does the general E2 antagonist fulvestrant, which downregulates and blocks ER, or ERα-selective E2 antagonist MPP prevent, arrest or reverse LAMT muscle fibrosis, atrophy and inguinal hernias in male Arom^hum mice? […] Here, we will define whether the effects of E2 on hernia formation in LAMT is mediated via ERα in vivo. We will treat Arom^hum or WT mice with vehicle, fulvestrant (ICI 182,780), or MPP. […] Circulating and muscle tissue E2 levels will be measured using LC-MS^2. To validate the effects of each treatment, protein expression of ERα and E2/ERα target genes (Ccnd1, Pgr, and Greb1), and cell proliferation markers (Ki67 and PCNA) will be determined by IHC and immunoblotting. Fibrotic-related genes (Kiss1, Ren1, Emb, Timp1, Spon2, and Eln), the ECM marker Col1a1, and the myocyte marker Myh will be assessed using qPCR and IHC in LAMT after fulvestrant, MPP, and/or letrozole treatment. […]

Which results are given for `C[C@]12CC[C@@H]3c4ccc(O)cc4C[C@@H](CCCCCCCCC[S+]([O-])CCCC(F)(F)C(F)(F)F)[C@H]3[C@@H]1CC[C@@H]2O` (stereo partly drawn) [fulvestrant]?
myofiber atrophy / myofiber cross-section area ([1]; Arom^hum mice with large hernias, fulvestrant 12 weeks, FIG. 18C): completely reversed myofiber atrophy; also recorded: increase in myofiber cross-section area; total collagen content in LAMT (hydroxyproline assay) ([1]; Arom^hum mice with large hernias, fulvestrant 12 weeks, FIG. 18E): decreased to normal levels similar to WT mice; established fibrosis in the LAMT ([1]; Arom^hum mice with large hernias, fulvestrant 12 weeks, FIGS. 18C and D): completely reversed with fulvestrant treatment; also recorded: decrease in muscle fibrosis; reversal of large and severe hernias (>200 mm^2) ([1]; Arom^hum mice, fulvestrant alone for 12 weeks, started when hernia area was over 200 mm^2, FIG. 18): can reverse large and severe hernias; time of administration after which large hernias completely disappeared ([1]; Arom^hum mice, hernia area over 200 mm^2): 3- to 4 week; E2-induced expression of estrogen-responsive genes (Pgr and Greb1) and fibrotic genes (Spon2, Kiss1, Eln) [2]: significantly decreased E2-induced expression of estrogen-responsive genes (Pgr and Greb1) and fibrotic genes (Spon2, Kiss1 and, Eln)
